Assay type in all cases: binding
In one experiment the target is HLA-A*68:01 (Homo sapiens, UniProt P04439, A269V/D185E/E176V/E277Q/E87N/F33Y/G231S/I121M/I166T/I218V/L180W/L300P/L318F/N151K/P208A/P217A/Q86R/R169H/T345S). Conditions: percent relative the binding of positive control peptide […]; duplicated experiments; positive binder >40%.
The next experiment addresses HLA-B*58:01 (Homo sapiens, UniProt P01889, A329T/C349S/D201E/D98Y/E176V/E187L/E204Q/E69T/G107R/I218V/I90N/K202T/L105A/L119I/N104I/N87E/Q89R/Q94S/R106L/R155S/R180L/R86G/S101N/S121R/S35A/S48A/T118I/V127L/V306I/V36M/Y140S/Y91M). Conditions: percent relative the binding of positive control peptide […]; duplicated experiments; positive binder >40%.
A further experiment has as its target HLA-C*07:01 (Homo sapiens, UniProt P10321, K90N/S123Y). Conditions: percent relative the binding of positive control peptide […]; duplicated experiments; positive binder >40%.
Another experiment has as its target HLA-A*02:01 (Homo sapiens, UniProt P04439, D140Y/D185E/D98H/E176V/E277Q/G131W/G231S/I119V/I121R/I166T/I218V/L300P/L318F/N151K/N90K/P208A/P217A/Q86G/Q94H/R138H/R169H/T345S).
A further experiment deals with HLA-B*07:02 (Homo sapiens, UniProt P01889). The note with it: percent relative the binding of positive control peptide […]; duplicated experiments; positive binder >40%.
In the next experiment the target is HLA-A*24:02 (Homo sapiens, UniProt P04439, D101N/D140Y/D185E/E176V/E190D/F33S/G103R/G107R/I119L/I121M/I306V/K335N/L105A/L180Q/L300P/N151K/N90K/Q86E/Q94H/R106L/R138H/R89G/T104I/T345S/V100E/W191G/Y123F). Conditions: percent relative the binding of positive control peptide […]; duplicated experiments; positive binder >40%.
In the next experiment the target is HLA-A*30:01 (Homo sapiens, UniProt P04439, D140H/D185E/E176W/F33S/G80R/H175R/K168Q/R138E/R41S). The note with it: percent relative the binding of positive control peptide […]; duplicated experiments; positive binder >40%.
The target in the next experiment is HLA-A*30:02 (Homo sapiens, UniProt P04439, D101N/D140H/D185E/E176R/F33S/G80R/H175R/K168Q/Q94H/R138E/R41S/V100E). The note with it: percent relative the binding of positive control peptide […]; duplicated experiments; positive binder >40%.
Setting [1] is: percent relative the binding of positive control peptide […], plate-bound monomer 0.5 µg/ml, duplicated experiments, positive binder >40%.

Where two headings read alike, the source gives them in different places.

Regarding T RLW V Y CG N, the “Bind A*68:01” value at HLA-A*68:01 was determined as 5%. Further, on HLA-B*58:01, the “Bind B*58:01” value stood at 0%. In addition, the “Bind C*07:01” value at HLA-C*07:01 was 15%. Also, at HLA-A*02:01 (setting [1]), the “Bind A*02:01” value worked out at 0%. Also, the “Bind B*07:02” value on HLA-B*07:02 worked out at 0%. Also, the “Bind A*24:02” value on HLA-A*24:02 came out at 0%. At HLA-A*30:01, the “Bind A*30:01” value was 45%. Besides, at HLA-A*30:02, the “Bind A*30:02” value is given as 33%.

Consider ILAAYHPQQ, for which the “Bind A*68:01” value on HLA-A*68:01 is listed as 0%. Further, the “Bind B*58:01” value at HLA-B*58:01 came to 30%. The “Bind C*07:01” value on HLA-C*07:01 is 1%. The “Bind A*02:01” value at HLA-A*02:01 (setting [1]) was found to be 57%. Besides, on HLA-B*07:02, the “Bind B*07:02” value is 1%. For the same substance, at HLA-A*24:02, the “Bind A*24:02” value came out at 0%. Also, the “Bind A*30:01” value at HLA-A*30:01 turned out to be 1%. Besides, on HLA-A*30:02, the “Bind A*30:02” value was found to be 45%.

With PSSDPAW ER, the “Bind A*68:01” value on HLA-A*68:01 was 53%. Besides, the “Bind B*58:01” value at HLA-B*58:01 is listed as 2%. For the same substance, on HLA-C*07:01, the “Bind C*07:01” value came to 18%. For the same substance, on HLA-A*02:01 (setting [1]), the “Bind A*02:01” value came to 1%. For the same substance, on HLA-B*07:02, the “Bind B*07:02” value stood at 10%. On HLA-A*24:02, the “Bind A*24:02” value amounted to 0%. Moreover, the “Bind A*30:01” value at HLA-A*30:01 is reported as 0%. For the same substance, the “Bind A*30:02” value on HLA-A*30:02 is 0%.

Consider SSNLKFQDA, for which the “Bind A*68:01” value on HLA-A*68:01 turned out to be 14%. For the same substance, the “Bind B*58:01” value at HLA-B*58:01 came to 9%. Moreover, the “Bind C*07:01” value at HLA-C*07:01 is 10%. The “Bind A*02:01” value on HLA-A*02:01 (setting [1]) was 32%. Also, the “Bind B*07:02” value at HLA-B*07:02 amounted to 0%. In addition, on HLA-A*24:02, the “Bind A*24:02” value was determined as 12%. Also, the “Bind A*30:01” value at HLA-A*30:01 amounted to 0%. Also, the “Bind A*30:02” value on HLA-A*30:02 is given as 64%.

Take YLLDGLRAQ: the “Bind A*68:01” value on HLA-A*68:01 turned out to be 15%. Also, the “Bind B*58:01” value at HLA-B*58:01 is recorded as 0%. Moreover, the “Bind C*07:01” value on HLA-C*07:01 is 0%. Besides, at HLA-A*02:01 (setting [1]), the “Bind A*02:01” value was 111%. Further, the “Bind B*07:02” value at HLA-B*07:02 is reported as 0%. Further, the “Bind A*24:02” value at HLA-A*24:02 is 0%. Moreover, the “Bind A*30:01” value on HLA-A*30:01 is listed as 0%. Further, the “Bind A*30:02” value on HLA-A*30:02 was determined as 10%.

Take VQFQSGGNN: the “Bind A*68:01” value on HLA-A*68:01 was 0%. Also, the “Bind B*58:01” value at HLA-B*58:01 worked out at 0%. Moreover, at HLA-C*07:01, the “Bind C*07:01” value came to 0%. The “Bind A*02:01” value on HLA-A*02:01 (setting [1]) is on record as 0%. In addition, at HLA-B*07:02, the “Bind B*07:02” value is reported as 0%. Further, the “Bind A*24:02” value on HLA-A*24:02 stood at 0%. In addition, the “Bind A*30:01” value on HLA-A*30:01 was found to be 0%. The “Bind A*30:02” value on HLA-A*30:02 is 51%.

As for AMILAAYHP, the “Bind A*68:01” value at HLA-A*68:01 was 0%. Besides, on HLA-B*58:01, the “Bind B*58:01” value turned out to be 64%. For the same substance, at HLA-C*07:01, the “Bind C*07:01” value is recorded as 1%. Besides, on HLA-A*02:01, the “Bind A*02:01” value turned out to be 34. For the same substance, the “Bind B*07:02” value at HLA-B*07:02 was 1%. The “Bind A*24:02” value at HLA-A*24:02 was 0%. Also, the “Bind A*30:01” value on HLA-A*30:01 was 0%. On HLA-A*30:02, the “Bind A*30:02” value came to 33%.

With PTQQIPKLV, on HLA-A*68:01, the “Bind A*68:01” value stood at 0%. For the same substance, the “Bind B*58:01” value on HLA-B*58:01 was 9%. Moreover, on HLA-C*07:01, the “Bind C*07:01” value is given as 22%. In addition, at HLA-A*02:01 (setting [1]), the “Bind A*02:01” value is recorded as 3%. In addition, the “Bind B*07:02” value on HLA-B*07:02 is given as 5%. Besides, on HLA-A*24:02, the “Bind A*24:02” value stood at 11%. Further, at HLA-A*30:01, the “Bind A*30:01” value was 10%. The “Bind A*30:02” value at HLA-A*30:02 stood at 86%.

On to GPSLIGLAM, for which the “Bind A*68:01” value on HLA-A*68:01 is 6%. Also, the “Bind B*58:01” value at HLA-B*58:01 is recorded as 18%. For the same substance, the “Bind C*07:01” value at HLA-C*07:01 amounted to 0%. Further, the “Bind A*02:01” value at HLA-A*02:01 (setting [1]) was 11%. Besides, the “Bind B*07:02” value at HLA-B*07:02 was 85%. Further, the “Bind A*24:02” value at HLA-A*24:02 worked out at 0%. In addition, the “Bind A*30:01” value on HLA-A*30:01 came to 0%. Also, the “Bind A*30:02” value at HLA-A*30:02 is reported as 0%.

Take SFYSDW YSP: the “Bind A*68:01” value on HLA-A*68:01 turned out to be 0%. The “Bind B*58:01” value at HLA-B*58:01 was 0%. In addition, the “Bind C*07:01” value on HLA-C*07:01 is given as 0%. In addition, the “Bind A*02:01” value at HLA-A*02:01 (setting [1]) stood at 7%. Besides, at HLA-B*07:02, the “Bind B*07:02” value is recorded as 0%. Further, the “Bind A*24:02” value at HLA-A*24:02 is reported as 0%. Further, the “Bind A*30:01” value at HLA-A*30:01 is reported as 0%. Besides, the “Bind A*30:02” value on HLA-A*30:02 amounted to 77%.

Turning to QQFIYAGSL, the “Bind A*68:01” value on HLA-A*68:01 is listed as 0%. Further, the “Bind B*58:01” value on HLA-B*58:01 is reported as 8%. The “Bind C*07:01” value at HLA-C*07:01 is 27%. The “Bind A*02:01” value on HLA-A*02:01 (setting [1]) amounted to 42%. The “Bind B*07:02” value on HLA-B*07:02 was 0%. In addition, on HLA-A*24:02, the “Bind A*24:02” value is on record as 0%. At HLA-A*30:01, the “Bind A*30:01” value came to 0%. Further, the “Bind A*30:02” value on HLA-A*30:02 is 80%.

The record behind these values is article PMC3608651, “A Broad Profile of Co-Dominant Epitopes Shapes the Peripheral Mycobacterium tuberculosis Specific CD8+ T-Cell Immune Response in South African Patients with Active Tuberculosis” (PLoS ONE, 2013).
